Experimental data taken from paper PMC3470887, “Protegrin-1 Inhibits Dengue NS2B-NS3 Serine Protease and Viral Replication in MK2 Cells” (Journal of Biomedicine and Biotechnology, 2012).

Key:
DENV-2 = DENV-2 replication in infected MK2 cells, viral RNA by real-time PCR; format: cell-based, Dengue virus serotype 2; details: inferred from lower inhibition percentage of low concentrations at 48 and 72 hrs versus 24 hrs
Description: The MK2 cell lines were grown in a 24-well tissue culture plate (1 × 10^5 cells/well), incubated 24 hrs under optimal conditions (37°C and 5% CO2). DENV-2 was added to the wells (MOI of 2) followed by incubation for 1 hr with gentle shaking every 10 min for optimal virus to cell contact. The virus supernatant was removed, and the cells were washed twice with fresh serum free DMEM media to remove residual virus. New complete DMEM media containing 2.5, 7.5 and 12.5 μM of PG-1 were added and the cultures were incubated for 24, 48 and 72 hrs. Afterwards, cellular supernatants were collected and stored at −80°C for viral quantification by real-time PCR.
For quantification of DENV-2 copies, the standard curve was generated by 10-fold serial dilution of known copies of DENV-2 RNA. Viral RNA was extracted from culture supernatant using QIAmp viral RNA minikit (QIAGEN, Germany) according to the manufacturer's instructions. A fragment located at the 5′UTR region of the virus genome was used to generate the primers. One-step RT-PCR using SyBr Green Master Kit (Qiagen, Germany) was used to conduct absolute quantification using ABI7300 machine from Applied Biosystems (Foster City, CA). […] Results were analyzed using Sequence Detection Software Version 1.3 (Applied Biosystems, Foster City, CA, USA).

dengue NS2B-NS3pro = dengue NS2B-NS3pro (Dengue virus type 2, UniProt P14340); experiment: Dengue NS2B-NS3pro protease inhibition assay (fluorogenic substrate Boc-Gly-Arg-Arg-MCA); format: biochemical, DENV-2
Sequence of dengue NS2B-NS3pro (P14340 1394-1440 limits assumed): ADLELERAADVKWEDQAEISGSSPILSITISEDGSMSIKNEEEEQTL
Sequence of dengue NS2B-NS3pro (P14340 1476-1660 limits assumed): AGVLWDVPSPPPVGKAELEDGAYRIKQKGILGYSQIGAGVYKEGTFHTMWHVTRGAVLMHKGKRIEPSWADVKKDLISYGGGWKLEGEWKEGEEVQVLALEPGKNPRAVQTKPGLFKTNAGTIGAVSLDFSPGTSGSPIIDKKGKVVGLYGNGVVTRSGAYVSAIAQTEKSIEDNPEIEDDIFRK
Description: The bioassay used in this study was modified from the method published by Kiat and coworkers. Reaction mixtures with total volume of 200 μL were prepared. These reaction mixtures consisted of 100 μM fluorogenic peptide substrate (Boc-Gly-Arg-Arg-MCA), 2 μM NS2B-NS3pro complex, with or without PG-1 of varying concentrations, buffered at pH 8.5 with 200 mM Tris-HCl. The PG-1 was initially prepared in Tris-HCl buffer and assayed at five different concentrations. The reaction mixtures without fluorogenic peptide substrate were firstly incubated at 37°Cfor 30 minutes. Subsequently, the substrate was added and the mixture was further incubated at the same temperature for 30 minutes. Triplicates were performed for all measurements and the readings were taken using Tecan Infinite M200 Pro fluorescence spectrophotometer. Substrate cleavage was optimized at the emission at 440 nm upon excitation at 350 nm. The readings were then used for calculating Km values of peptide substrate and IC50 values of peptide inhibitors using nonlinear regression models in GraphPad Prism 5.01 software.

**Q.** Which “PG-1 stability in culture media” value (DENV-2) does the source give for `CC(C)C[C@H](NC(=O)[C@H](CCCNC(=N)N)NC(=O)CNC(=O)CNC(=O)[C@@H](N)CCCNC(=N)N)C(=O)N[C@H]1CSSC[C@@H](C(=O)N[C@H](C(=O)NCC(=O)N[C@@H](CCCNC(=N)N)C(N)=O)C(C)C)NC(=O)[C@H](C(C)C)NC(=O)[C@@H]2CSSC[C@H](NC(=O)[C@H](Cc3ccc(O)cc3)NC1=O)C(=O)N[C@@H](CCCNC(=N)N)C(=O)N[C@@H](CCCNC(=N)N)C(=O)N[C@@H](CCCNC(=N)N)C(=O)N[C@@H](Cc1ccccc1)C(=O)N2` [PG-1] here?
**A.** The value was “declined with longer incubation in culture media”.

**Q.** And the IC50 (dengue NS2B-NS3pro; 2 μM NS2B-NS3pro, 100 μM Boc-Gly-Arg-Arg-MCA, 200 mM Tris-HCl pH 8.5, 37°C, 30 min pre-incubation + 30 min, triplicates, nonlinear regression GraphPad Prism)?
**A.** Its IC50 is 11.7 µM.

**Q.** And the inhibition at 40 µM (dengue NS2B-NS3pro; PG-1 at 40 μM, assayed at five concentrations, 10–160 μM)?
**A.** The inhibition at 40 µM was 95.7%.

**Q.** What about the Ki (dengue NS2B-NS3pro; kinetic assay, PG-1 0, 2.5, 5, 10 and 20 μM, Michaelis-Menten nonlinear regression, GraphPad Prism, read-out: Ki (inhibition constant)) of the same compound?
**A.** The Ki was 5.85 µM.
